Experimental data: US20210244720A1, “Therapeutic Tyrosine Kinase Inhibitors for Relapsing Multiple Sclerosis (RMS)” (Genzyme Corporation, priority 2020, published 2021)

Test system: participants with relapsing multiple sclerosis (RMS)
Assay: Phase 2b study in RMS: safety and tolerability (adverse events, laboratory tests, ECG, vital signs)
[1] = 5 mg, 12 weeks treatment, n = 33
[2] = 5 mg, BTK inhibitor treatment period, safety population, N = 32
[3] = 5 mg, BTK inhibitor treatment period, safety population, N = 33
[4] = 15 mg, 12 weeks treatment, n = 32
[5] = 15 mg, BTK inhibitor treatment period, safety population, N = 32
[6] = 30 mg, 12 weeks treatment, n = 33
[7] = 30 mg, BTK inhibitor treatment period, safety population, N = 33
[8] = 60 mg, 12 weeks treatment, n = 32

C=CC(=O)N1CCC[C@@H](n2c(=O)n(-c3ccc(Oc4ccccc4)cc3)c3c(N)nccc32)C1 [the BTK inhibitor, (R)-1-(1-acryloylpiperidin-3-yl)-4-amino-3-(4-phenoxyphenyl)-1H-imidazo[4,5-c]pyridin-2(3H)-one]
Accidental overdose, patients n (%) [1]: 0
Alanine aminotransferase increased, patients n (%) [1]: 1 (3%)
Alopecia, patients n (%) [1]: 1 (3%)
Back pain, patients n (%) [1]: 1 (3%)
Gastroenteritis, patients n (%) [1]: 1 (3%)
Headache, patients n (%) [1]: 1 (3%)
Muscle spasticity, patients n (%) [1]: 0
Nasopharyngitis, patients n (%) [1]: 1 (3%)
Oropharyngeal pain, patients n (%) [1]: 1 (3%)
Peripheral edema, patients n (%) [1]: 2 (6%)
Respiratory tract infection, patients n (%) [1]: 0
Upper respiratory tract infection, patients n (%) [1]: 2 (6%)
Participants with any TEAE, % [2]: (50.0) %
Participants with any treatment-related TEAE, % [2]: (18.8) %
Participants with treatment emergent SAE(s), Any class, n(%) [2]: 0
Participants with treatment emergent SAE(s), Multiple sclerosis relapse, n(%) [2]: 0
Participants with treatment emergent SAE(s), NERVOUS SYSTEM DISORDERS, n(%) [2]: 0
AESI, Alanice aminotransferase increased, n (%) [3]: 0
AESI, Investigations, n (%) [3]: 0
Any AESI, n (%) [3]: 0
AESI, Alanice aminotransferase increased, n (%) (5 mg, Weeks 1 to 4, N = 16): 0
AESI, Investigations, n (%) (5 mg, Weeks 1 to 4, N = 16): 0
Any AESI, n (%) (5 mg, Weeks 1 to 4, N = 16): 0
Participants with any TEAE, % (5 mg, Weeks 1 to 4, N = 32): (25.0) %
Participants with any treatment-related TEAE, % (5 mg, Weeks 1 to 4, N = 32): (12.5) %
Any AE, % (5 mg, Weeks 1 to 4, n = 16): (31.3%)
Any treatment-related AE, % (5 mg, Weeks 1 to 4, n = 16): (12.5%)
Any AE, % (5 mg, Weeks 1 to 12, n = 33): (57.6) %
Any treatment-related AE, % (5 mg, Weeks 1 to 12, n = 33): (15.2) %
Accidental overdose, patients n (%) [4]: 0
Alanine aminotransferase increased, patients n (%) [4]: 0
Alopecia, patients n (%) [4]: 1 (3%)
Back pain, patients n (%) [4]: 1 (3%)
Gastroenteritis, patients n (%) [4]: 0
Headache, patients n (%) [4]: 3 (9%)
Muscle spasticity, patients n (%) [4]: 0
Nasopharyngitis, patients n (%) [4]: 0
Oropharyngeal pain, patients n (%) [4]: 0
Peripheral edema, patients n (%) [4]: 0
Respiratory tract infection, patients n (%) [4]: 1 (3%)
Upper respiratory tract infection, patients n (%) [4]: 2 (6%)
AESI, Alanice aminotransferase increased, n (%) [5]: 0
AESI, Investigations, n (%) [5]: 0
Any AESI, n (%) [5]: 0
Participants with any TEAE, % [5]: (56.3) %
Participants with any treatment-related TEAE, % [5]: (9.4) %
Participants with treatment emergent SAE(s), Any class, n(%) [5]: 0
Participants with treatment emergent SAE(s), Multiple sclerosis relapse, n(%) [5]: 0
Participants with treatment emergent SAE(s), NERVOUS SYSTEM DISORDERS, n(%) [5]: 0
AESI, Alanice aminotransferase increased, n (%) (15 mg, Weeks 1 to 4, N = 16): 0
AESI, Investigations, n (%) (15 mg, Weeks 1 to 4, N = 16): 0
Any AESI, n (%) (15 mg, Weeks 1 to 4, N = 16): 0
Participants with any TEAE, % (15 mg, Weeks 1 to 4, N = 32): (43.8) %
Participants with any treatment-related TEAE, % (15 mg, Weeks 1 to 4, N = 32): (3.1) %
Any AE, % (15 mg, Weeks 1 to 4, n = 16): (18.9%)
Any AE, % (15 mg, Weeks 1 to 12, n = 32): (53.1) %
Any treatment-related AE, % (15 mg, Weeks 1 to 12, n = 32): (3.1) %
ALT level of the AESI participant (30 mg group, Week 8 visit): 105 U/L
ALT level of the AESI participant (30 mg group, within 4 days after Week 8 visit): 32 U/L
AESIs (alanine aminotransferase increased >3×ULN) (30 mg treatment period): 1
Accidental overdose, patients n (%) [6]: 0
Alanine aminotransferase increased, patients n (%) [6]: 1 (3%)
Alopecia, patients n (%) [6]: 0
Back pain, patients n (%) [6]: 2 (6%)
Gastroenteritis, patients n (%) [6]: 0
Headache, patients n (%) [6]: 1 (3%)
Muscle spasticity, patients n (%) [6]: 1 (3%)
Nasopharyngitis, patients n (%) [6]: 1 (3%)
Oropharyngeal pain, patients n (%) [6]: 1 (3%)
Peripheral edema, patients n (%) [6]: 0
Respiratory tract infection, patients n (%) [6]: 1 (3%)
Upper respiratory tract infection, patients n (%) [6]: 1 (3%)
AESI, Alanice aminotransferase increased, n (%) [7]: 1 (3.0)
AESI, Investigations, n (%) [7]: 1 (3.0)
Any AESI, n (%) [7]: 1 (3.0)
Participants with any TEAE, % [7]: (51.5) %
Participants with any severe TEAE, % [7]: (3.0) %
Participants with any treatment emergent SAE, % [7]: (3.0) %
Participants with any treatment-related TEAE, % [7]: (12.1) %
Participants with treatment emergent SAE(s), Any class, n(%) [7]: 1 (3.0)
Participants with treatment emergent SAE(s), Multiple sclerosis relapse, n(%) [7]: 1 (3.0)
Participants with treatment emergent SAE(s), NERVOUS SYSTEM DISORDERS, n(%) [7]: 1 (3.0)
AESI, Alanice aminotransferase increased, n (%) (30 mg, Weeks 1 to 4, N = 16): 0
AESI, Investigations, n (%) (30 mg, Weeks 1 to 4, N = 16): 0
Any AESI, n (%) (30 mg, Weeks 1 to 4, N = 16): 0
Participants with any TEAE, % (30 mg, Weeks 1 to 4, N = 33): (42.4) %
Participants with any treatment-related TEAE, % (30 mg, Weeks 1 to 4, N = 33): (12.1) %
Any AE, % (30 mg, Weeks 1 to 4, n = 16): (12.5%)
Any AE, % (30 mg, Weeks 1 to 12, n = 33): (54.5) %
Any treatment-related AE, % (30 mg, Weeks 1 to 12, n = 33): (12.1) %
ALT level of the AESI participant (60 mg group, Week 4 visit, ULN 34 U/L): 107 U/L
ALT level of the AESI participant (60 mg group, Week 12): 28 U/L
AESIs (alanine aminotransferase increased >3×ULN) (60 mg treatment period): 1
Accidental overdose, patients % [8]: (9%)
Accidental overdose, patients n [8]: 3
Alanine aminotransferase increased, patients % [8]: (3%)
Alanine aminotransferase increased, patients n [8]: 1
Alopecia, patients % [8]: (3%)
Alopecia, patients n [8]: 1
Back pain, patients n [8]: 0
Gastroenteritis, patients % [8]: (6%)
Gastroenteritis, patients n [8]: 2
Headache, patients % [8]: (13%)
Headache, patients n [8]: 4
Muscle spasticity, patients % [8]: (6%)
Muscle spasticity, patients n [8]: 2
